Data: PubChem BioAssay AID1645868 (Buhrlage Lab, Dana-Farber Cancer Institute and Novartis …, 2021)
pIC50: −log10 of the molar value. The source made the active and inactive calls.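 Rule for the calls: active = maximal percent inhibition of the deubiquitinase OTUD3 of at least 30% across the tested doses; inactive = the rest.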 Positions of bridges follow the written chain, without caps; N, C: chain ends. Residues, ends and D or L forms follow the SMILES beside them. ξ: configuration not given here. *: point of attachment. Pentadecanoyl(3ξ-OH,15-Gua) = N=C(N)NCCCCCCCCCCCCC(O)CC(=O)*

Each compound was assayed against OTU domain-containing protein 3 (Homo sapiens) (UniProt Q5T2D3) (assay: Validation of screening hits, potency titration, in vitro enzymatic, OTU domain-containing protein 3 DUB inhibitors (AID 1645868)). Settings: purified OTUD3, ubiquitin-rhodamine cleavage fluorescence, 2 h.
OTU domain-containing protein 3 (Homo sapiens), sequence (Q5T2D3 whole entry, looked up, the tested form may be a part): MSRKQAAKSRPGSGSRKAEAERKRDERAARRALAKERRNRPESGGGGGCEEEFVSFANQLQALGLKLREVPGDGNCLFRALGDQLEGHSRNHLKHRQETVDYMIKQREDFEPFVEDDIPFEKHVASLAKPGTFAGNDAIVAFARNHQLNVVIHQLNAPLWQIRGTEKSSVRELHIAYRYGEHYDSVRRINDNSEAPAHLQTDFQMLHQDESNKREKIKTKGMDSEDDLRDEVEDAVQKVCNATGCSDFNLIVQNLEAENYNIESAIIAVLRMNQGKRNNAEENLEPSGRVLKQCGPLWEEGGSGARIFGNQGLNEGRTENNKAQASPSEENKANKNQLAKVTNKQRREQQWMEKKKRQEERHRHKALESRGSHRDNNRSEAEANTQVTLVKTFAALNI

Row | IC50 | pIC50 | SMILES
1 | > 50 µM (inactive) | – | Cc1ccc(NC(=O)c2c3c(nc4ccccc24)CCCCC3)c(C)c1
2 | > 50 µM (inactive) | – | CC(C(=O)Nc1ccccc1)n1cnc2nc(N3CCCCC3)ncc2c1=O (centres undefined)
3 | – | 4.77 | COc1ccccc1CNC(=O)CCCCn1c(=O)c2ccccc2n(Cc2ccccc2C#N)c1=O
4 | > 50 µM (inactive) | – | COc1ccc(C2C(C(=O)Nc3ccccc3OC)=C(C)Nc3nnnn32)cc1Br (centres undefined)
5 | – | 4.36 | O=C(Nc1ccccc1)C1CCCN(C(=O)c2cc3ccccc3[nH]2)C1 (centres undefined)
6 | > 50 µM (inactive) | – | O=C(Nc1ccc(N2CCOCC2)cc1)c1ccc(-c2ccc(N3CCCC3)nn2)cc1
7 | – | 4.60 | Cc1nn(-c2ccc(F)cc2)cc1-c1noc(C(=O)NCc2ccccn2)n1
8 | > 50 µM (inactive) | – | Cc1cccc(NC(=O)c2ccn(COc3ccc(F)cc3F)n2)c1C
9 | – | 4.74 | Cc1ccc(NC(=O)c2sc(=S)n(CCc3ccccc3)c2N)cc1
10 | > 50 µM (inactive) | – | O=C(Nc1cccc(S(=O)(=O)N2CCCC2)c1)c1ccc2c(=O)n3c(nc2c1)CCCCC3
11 | > 50 µM (inactive) | – | COc1ccc(CNC(=O)CN2C(=O)C(C)=C(c3ccc(C)cc3)S2(=O)=O)cc1
12 | > 50 µM (inactive) | – | O=C(NCc1cccnc1)C1CCN(c2cnc(N3CCCCCC3)nc2)CC1
13 | > 50 µM (inactive) | – | O=C(Nc1ccc2c(c1)OCCO2)C1CCC(Cn2cnc3ccccc3c2=O)CC1 (centres undefined)
14 | > 50 µM (inactive) | – | COc1ccc(Nc2nc(C(=O)NCc3ccccc3)cc3occc23)cc1
15 | > 50 µM (inactive) | – | O=C(c1cccnc1)N1CCC2(CC1)CC1(CO2)Nc2ccccc2-n2cccc21 (centres undefined)
16 | – | 4.33 | O=C(COc1ncnc2ccccc12)Nc1ccc2c(c1)OC1(CCCC1)O2
17 | – | 4.53 | Cn1c(CCNC(=O)c2[nH]nc3c2CCc2ccccc2-3)nc2ccccc21
18 | > 50 µM (inactive) | – | COCCNC(=O)c1ccn(-c2ccc3ccc(-c4cnn(C)c4)cn23)n1
19 | > 50 µM (inactive) | – | O=C(Nc1ccc2c(c1)OCCO2)c1cc(CN2CCCC2)on1
20 | > 50 µM (inactive) | – | COc1ccc(-c2nonc2NC(=O)C(c2ccccc2)c2ccccc2)cc1OC

Row | IC50 | pIC50 | SMILES
21 | – | 4.36 | CCOc1ccc(-c2nc(C#N)c(N3CCN(C(=O)c4ccccc4C)CC3)o2)cc1
22 | > 50 µM (inactive) | – | O=C(NC1CCN(c2nc(-c3cccnc3)nc3ccccc23)CC1)c1cccnc1
23 | > 50 µM (inactive) | – | O=C(NCc1ccccc1Cl)C1CCCN(c2nc3ccsc3c(=O)s2)C1 (centres undefined)
24 | > 50 µM (inactive) | – | Cc1ccc(-c2noc(-c3nnc(SCC(=O)NC4CCCC4)n3C)n2)cc1
25 | – | 4.72 | O=C(CN1CCCCC1)Nc1nnc(-c2ccc([N+](=O)[O-])cc2)s1
26 | > 50 µM (inactive) | – | CCn1c(CNc2ccc(Cl)cc2)nnc1SCC(=O)Nc1ccccc1
27 | – | 5.56 | CCOc1ccccc1NC(=O)Cn1c(=O)n(CCCC(=O)NCc2ccc(C)cc2)c(=O)c2sccc21
28 | > 50 µM (inactive) | – | O=C(CSc1nncc2ccccc12)Nc1ccc2c(c1)OCO2
29 | > 50 µM (inactive) | – | Cc1nc(-c2ccc(NC(=O)N3CCN(c4ccccn4)CC3)cc2)no1
30 | – | 4.54 | Cc1cc(=O)n(CC(=O)NCc2ccccc2F)c2c1c(C)nn2-c1ccccc1
31 | > 50 µM (inactive) | – | COc1ccccc1C(=O)NCC(c1ccc2c(c1)CCCN2C)N1CCCC1 (centres undefined)
32 | – | 4.40 | CSc1cccc(NC(=O)COc2cccc3ccccc23)c1
33 | – | 4.49 | COCCCNC(=O)c1ccc(Cn2c(=O)c3ccccc3n(CC(=O)NC3CCCCC3)c2=O)cc1
34 | > 50 µM (inactive) | – | NC(=O)C1(N2CCCCC2)CCN(C(=O)c2[nH]nc3c2CCc2ccccc2-3)CC1
35 | – | 4.75 | COc1ccc(NC(=O)c2cc(-c3cccnc3)n[nH]2)cc1Cl
36 | > 50 µM (inactive) | – | COc1cccc(NC(=O)c2ccc(F)cc2Cl)c1
37 | – | 4.42 | O=C(Nc1cccc(C(F)(F)F)c1)N1CCCn2c(nc3ccccc32)C1
38 | – | 5.00 | COc1ccc(Cn2c(=O)[nH]c3cc(C(=O)NCCCN4CCN(c5cccc(Cl)c5)CC4)ccc3c2=O)cc1
39 | > 50 µM (inactive) | – | COc1ccccc1NS(=O)(=O)c1ccc2oc(SCC(=O)c3ccccc3)nc2c1

More lines, now with the values behind:

Row | SMILES | IC50 | pIC50
40 | CCn1cnc2c(-c3ccccc3)cn(CC(=O)NCc3ccc4c(c3)OCO4)c2c1=O | > 50 µM (inactive) | –
41 | COc1c(C)c(C(O)C(C)O)c2[nH]c3ccc(CC=C(C)C)cc3c2c1O (centres undefined) | – | 4.59
42 | COc1cc2cc3c(c(O)c2c(O)c1-c1c(OC)cc2cc4c(c(O)c2c1O)C(=O)OC1CC(C)OC41)C(=O)OC1CC(C)OC31 (centres undefined) | > 50 µM (inactive) | –
43 | CCc1ccc2[nH]c3c(c(=O)c2c1)CN(CC(=O)NCc1ccc2c(c1)OCO2)CC3 | – | 4.54
44 | Cc1nn(-c2nc3ccccc3[nH]2)c2c1C(c1cccs1)CC(=O)N2 (centres undefined) | > 50 µM (inactive) | –
45 | Cc1ccc(Nc2nc(NCCc3ccccc3)nc3c2cnn3C)cc1 | > 50 µM (inactive) | –
46 | COC(=O)c1ccc(C(=O)Nc2cc3ccccc3cc2NC(=O)c2ccc(C(=O)OC)cc2)cc1 | – | 4.72
47 | CC1=C(c2ccc(F)cc2)S(=O)(=O)N=C1Nc1ccc(Cl)cc1 | > 50 µM (inactive) | –
48 | c1coc(CNc2nc(Nc3cccc4ccccc34)nc3ccccc23)c1 | > 50 µM (inactive) | –
49 | Cc1cccc(NC(=O)Cn2c(-c3cnccn3)nc(C)c(C)c2=O)c1C | > 50 µM (inactive) | –
50 | O=S(=O)(c1cccc2cccnc12)N(CCc1ccccc1)C1CCN(CCc2ccc(Cl)cc2)CC1 | > 50 µM (inactive) | –
51 | Cc1ccccc1N1C(=O)/C(=C\c2cccn2C)c2ccccc2C1=O | > 50 µM (inactive) | –
52 | COc1cc(C2SCC(=O)Nc3c2c(-c2ccccc2)nn3-c2ccccc2)cc(OC)c1OC (centres undefined) | > 50 µM (inactive) | –
53 | O=C(CNc1ccc(F)c(Cl)c1)Nc1ccc2c(c1)OCCO2 | > 50 µM (inactive) | –
54 | O=S1(=O)CCN(CC2CCCO2)c2c(Oc3ccccc3)nc(F)c(Cl)c21 (centres undefined) | > 50 µM (inactive) | –
55 | Cn1c(SCCOc2ccc(Cl)cc2)nnc1-c1ccc2c(c1)OCCO2 | > 50 µM (inactive) | –
56 | CCOC(=O)c1c(C)oc2nc(CSc3ccccc3)[nH]c(=O)c12 | > 50 µM (inactive) | –
57 | COc1cccc(-c2nc3cnccn3c2NCc2ccc3c(c2)OCO3)c1 | > 50 µM (inactive) | –
58 | COc1ccc(NC(=O)C2CC(=O)Nc3c(-c4ccc(Cl)cc4)cnn32)c(OC)c1 (centres undefined) | – | 4.47
59 | Cc1noc(C)c1S(=O)(=O)Nc1ccc(C(=O)Nc2ccc3c(c2)OCCO3)cc1 | > 50 µM (inactive) | –
60 | O=c1[nH]c2ccc(S(=O)(=O)Nc3ccc(O)c4ccccc34)cc2[nH]1 | > 50 µM (inactive) | –
61 | CCOc1ccc2c(c1)c(=O)c(C(=O)c1ccc(C)cc1)cn2CC(=O)Nc1ccc(OC)c(OC)c1 | – | 5.70
62 | CC1CCN(C(=O)c2cn(-c3cc(N4CCC(C)CC4)ncn3)cn2)CC1 | > 50 µM (inactive) | –
63 | CC(=O)N1Cc2ccccc2CC2(CCCN(CC3CCOCC3)C2)C1 (centres undefined) | > 50 µM (inactive) | –
64 | CCCCc1nc2sc3c(SCC(=O)NCc4ccccc4)ncnc3c2c2c1CCC2 | > 50 µM (inactive) | –
65 | Cc1noc(C)c1CN1CC[C@H]2O[C@H](C(=O)NCc3ccco3)CC[C@H]21 | > 50 µM (inactive) | –
66 | CC(=O)C1=C(O)[C@]2(O)C(=O)c3c(c(C)c4ccc(C)c(O)c4c3O)C[C@H]2[C@@H](N)C1=O | – | 5.67
67 | CN(C)CCc1cc2c(c3c1ccc1ccccc13)OCO2 | > 50 µM (inactive) | –

Row | SMILES | IC50 | pIC50
68 | Cc1ccc(C)c(NS(=O)(=O)c2cc(-c3cnc(C4CC4)o3)ccc2C)c1 | > 50 µM (inactive) | –
69 | O=C(CSc1ncnc2c1oc1ccccc12)Nc1ccc2c(c1)OCCO2 | – | 4.46
70 | Cc1cn[nH]c1C1COCCN1C(=O)c1ccc2ncccc2c1 (centres undefined) | > 50 µM (inactive) | –
71 | CCOc1ccc(S(=O)(=O)Nc2ccc[nH]c2=O)cc1 | > 50 µM (inactive) | –
72 | COC(=O)c1c(C)[nH]c(C(=O)C(C)OC(=O)CCC2CCCC2)c1C (centres undefined) | > 50 µM (inactive) | –
73 | O=C(/C=C/c1ccc2c(c1)OCO2)Nc1nc2c(s1)COCC2 | > 50 µM (inactive) | –
74 | O=C(Cn1cnc2c(oc3ccccc32)c1=O)NCc1ccccc1Cl | – | 4.44
75 | Cc1cc(CSc2ncccc2C(=O)Nc2ccnn2Cc2cccnc2)no1 | > 50 µM (inactive) | –
76 | Fc1ccc(Oc2nc(CN3CCOCC3)nc3sc4c(c23)CCCC4)c(Cl)c1 | > 50 µM (inactive) | –
77 | CN(C)c1ccc(/C=N/NC(=O)c2ccc(Cl)cc2)cc1 | – | 4.62
78 | CN(C)S(=O)(=O)c1ccc(C(=O)Nc2c(C#N)oc3ccccc23)cc1 | > 50 µM (inactive) | –
79 | COc1ccc(OCC(=O)Nc2ccc(C)c(OCc3cc(=O)n4ccccc4n3)c2)cc1 | > 50 µM (inactive) | –
80 | CCOc1ccc(-n2c(C)cc(/C=C(\C#N)c3nc4ccccc4[nH]3)c2C)cc1 | > 50 µM (inactive) | –
81 | NC(=O)c1nnn(-c2ccc(NC(=O)c3ccc(F)c(F)c3)cc2)n1 | – | 4.69
82 | CC1NC(=O)C(CC(N)=O)NC(=O)C(C(C)O)NC(=O)C(Cc2ccc(O)cc2)NC(=O)C(C(C)C)NC(=O)C(NC(=O)CC(O)CCCCCCCCCCCCN=C(N)N)C(C)OC1=O (centres undefined) ({Pentadecanoyl(3ξ-OH,15-Gua)}-TVYTNA; ester 1-C; configuration not given here) | – | 4.44
83 | O=C(COc1nsnc1N1CCOCC1)Nc1ccccc1F | > 50 µM (inactive) | –
84 | O=C(NCc1ccccc1)c1ccc2c(=O)n(-c3ccccc3)c(=O)[nH]c2c1 | – | 4.42
85 | O=C(CCc1ccccc1)N(CC1CCCO1)c1nc2ccccc2s1 (centres undefined) | > 50 µM (inactive) | –
86 | O=C(CCc1nnc2n(Cc3ccc(F)cc3)c(=O)c3ccccc3n12)N1CCN(c2ccccn2)CC1 | > 50 µM (inactive) | –
87 | COc1ccc(NS(=O)(=O)c2cc(NC(=O)CCc3nc4ccccc4s3)ccc2C)cc1 | – | 4.50
88 | Cc1cc(Nc2ccc(C(=O)NCc3ccco3)cc2)n2nc(-c3cccnc3)nc2n1 | – | 4.43
89 | CC12c3ccc4c(c3C(=O)c3occ(c31)C(=O)CC2O)CCC4=O (centres undefined) | > 50 µM (inactive) | –
90 | O=C(CCCCn1c(=O)[nH]c2ccccc2c1=O)Nc1cccc(Cl)c1 | – | 4.67
91 | Cc1ccc(C(=O)N2CCCC3(C2)Nc2cccnc2NC3=NC2CCCC2)s1 (centres undefined) | > 50 µM (inactive) | –
92 | O=C(CCn1c(=O)c2sccc2n(CC(=O)OCc2ccccc2)c1=O)NCc1ccc2c(c1)OCO2 | – | 4.68
93 | CC1Oc2cc3c(-c4c(O)cc(O)c5c(O)c6c(cc45)OC(C)C(C)C6=O)c(O)cc(O)c3c(O)c2C(=O)C1C (centres undefined) | – | 5.61
94 | CCn1c(=N)n(CCOc2ccc(F)cc2)c2ccccc21 | > 50 µM (inactive) | –
